# Laboratory results reported in publication PMC6788984, “High-potency ligands for DREADD imaging and activation in rodents and monkeys” (Nature Communications, 2019).
# Where “and” joins values, the source holds several entries; their conditions need not be identical. Equal values may be shown once. Read-outs that look alike come from different tables or passages of the source.
# What was measured:
# hM4Di [1] = biological target: T1, hM4Di (Homo sapiens, UniProt P08173, A203G/Y113C); assay: BRET Galpha-o1 protein activation assay in HEK-293 cells transfected with hM4Di; type: cell-based; parameters: host or cells: HEK-293; conditions: for hM4Di activation, concentration-response points: replicates
# T1 sequence (P08173 1-479 Y113C/A203G): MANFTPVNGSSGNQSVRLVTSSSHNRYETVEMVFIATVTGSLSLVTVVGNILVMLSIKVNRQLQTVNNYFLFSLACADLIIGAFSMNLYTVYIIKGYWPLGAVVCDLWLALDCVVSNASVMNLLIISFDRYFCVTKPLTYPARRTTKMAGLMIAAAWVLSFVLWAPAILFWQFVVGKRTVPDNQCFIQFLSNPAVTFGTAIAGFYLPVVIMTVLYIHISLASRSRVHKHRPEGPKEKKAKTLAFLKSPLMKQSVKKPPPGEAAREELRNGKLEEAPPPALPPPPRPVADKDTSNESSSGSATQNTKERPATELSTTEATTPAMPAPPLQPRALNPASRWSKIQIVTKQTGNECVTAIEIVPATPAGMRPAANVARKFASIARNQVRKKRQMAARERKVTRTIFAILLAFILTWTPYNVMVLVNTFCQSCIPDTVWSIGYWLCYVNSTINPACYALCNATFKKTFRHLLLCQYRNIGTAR
# Method: The indicated amount of cDNA was transfected into HEK-293 cells using polyethylenimine (PEI; Sigma-Aldrich) in a 1–2 DNA:PEI ratio. Cell harvesting for radioligand binding experiments or signaling assays were performed approximately 48 h after transfection.
# BRET assays were performed to detect receptor ligand-induced Gαo1 protein activation. […] Forty-eight hour after transfection cells were harvested, washed and resuspended in phosphate-buffered saline (PBS). Approximately, 200,000 cells/well were distributed in 96-well plates, and 5 µM Coelenterazine H (substrate for luciferase) was added to each well. Five minutes after addition of Coelenterazine H, ligands were added to each well. […] Results were calculated for the BRET change (BRET ratio for the corresponding drug minus BRET ratio in the absence of the drug) 5 min after the addition of the ligands.
# hM3Dq [2] = biological target: T2, hM3Dq (Homo sapiens, UniProt P20309, A239G/Y149C)
# T2 sequence (P20309 whole entry Y149C/A239G): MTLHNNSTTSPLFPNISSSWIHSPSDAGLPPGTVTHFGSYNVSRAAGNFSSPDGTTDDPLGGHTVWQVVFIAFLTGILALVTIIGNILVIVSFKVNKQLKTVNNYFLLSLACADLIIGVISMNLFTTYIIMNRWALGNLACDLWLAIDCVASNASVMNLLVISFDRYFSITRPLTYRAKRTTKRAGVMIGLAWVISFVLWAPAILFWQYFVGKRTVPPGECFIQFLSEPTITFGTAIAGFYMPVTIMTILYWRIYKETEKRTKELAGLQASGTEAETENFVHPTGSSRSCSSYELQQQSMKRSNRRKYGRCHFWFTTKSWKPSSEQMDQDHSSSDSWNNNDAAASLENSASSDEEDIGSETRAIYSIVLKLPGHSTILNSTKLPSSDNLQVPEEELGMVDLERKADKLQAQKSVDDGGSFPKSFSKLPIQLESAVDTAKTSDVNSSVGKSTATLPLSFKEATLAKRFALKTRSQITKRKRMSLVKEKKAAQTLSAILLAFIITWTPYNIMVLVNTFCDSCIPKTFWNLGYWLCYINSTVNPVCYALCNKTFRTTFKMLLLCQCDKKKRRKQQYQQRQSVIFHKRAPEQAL
# Description: (§1) Wild-type mice (C57BL/6J) were ordered from Jackson Laboratories and rats (Sprague–Dawley) were ordered from Charles River. Rodents were male and ordered at ~6 weeks of age. Transgenic mice were bred at NIDA breeding facility. […] Three male rhesus monkeys (Macaca mulatta) weighed 8–12 kg. All experiments and procedures complied with all relevant ethical regulations for animal testing and research and followed NIH guidelines and were approved by each institute’s animal care and use committees.
# (§2) Ten minutes after injection, animals were placed in an open field arena (Opto-varimex ATM3, Columbus Instruments) and their locomotor activity was tracked during 60 min as infrared beam crossings and traveled distance was converted to cm. Animals were repeatedly tested on consecutive sessions (after an initial habituation session with no drug treatment) in a counterbalanced design.
# P-gp = biological target: T3, P-gp (Homo sapiens, UniProt P08183); assay: P-glycoprotein (P-gp) substrate assay in Caco-2 cells with and without verapamil; type: in vitro ADME; conditions: Caco-2, efflux ratio with/without verapamil
# T3 construct: host or cells: Caco-2
# T3 sequence (P08183 whole entry): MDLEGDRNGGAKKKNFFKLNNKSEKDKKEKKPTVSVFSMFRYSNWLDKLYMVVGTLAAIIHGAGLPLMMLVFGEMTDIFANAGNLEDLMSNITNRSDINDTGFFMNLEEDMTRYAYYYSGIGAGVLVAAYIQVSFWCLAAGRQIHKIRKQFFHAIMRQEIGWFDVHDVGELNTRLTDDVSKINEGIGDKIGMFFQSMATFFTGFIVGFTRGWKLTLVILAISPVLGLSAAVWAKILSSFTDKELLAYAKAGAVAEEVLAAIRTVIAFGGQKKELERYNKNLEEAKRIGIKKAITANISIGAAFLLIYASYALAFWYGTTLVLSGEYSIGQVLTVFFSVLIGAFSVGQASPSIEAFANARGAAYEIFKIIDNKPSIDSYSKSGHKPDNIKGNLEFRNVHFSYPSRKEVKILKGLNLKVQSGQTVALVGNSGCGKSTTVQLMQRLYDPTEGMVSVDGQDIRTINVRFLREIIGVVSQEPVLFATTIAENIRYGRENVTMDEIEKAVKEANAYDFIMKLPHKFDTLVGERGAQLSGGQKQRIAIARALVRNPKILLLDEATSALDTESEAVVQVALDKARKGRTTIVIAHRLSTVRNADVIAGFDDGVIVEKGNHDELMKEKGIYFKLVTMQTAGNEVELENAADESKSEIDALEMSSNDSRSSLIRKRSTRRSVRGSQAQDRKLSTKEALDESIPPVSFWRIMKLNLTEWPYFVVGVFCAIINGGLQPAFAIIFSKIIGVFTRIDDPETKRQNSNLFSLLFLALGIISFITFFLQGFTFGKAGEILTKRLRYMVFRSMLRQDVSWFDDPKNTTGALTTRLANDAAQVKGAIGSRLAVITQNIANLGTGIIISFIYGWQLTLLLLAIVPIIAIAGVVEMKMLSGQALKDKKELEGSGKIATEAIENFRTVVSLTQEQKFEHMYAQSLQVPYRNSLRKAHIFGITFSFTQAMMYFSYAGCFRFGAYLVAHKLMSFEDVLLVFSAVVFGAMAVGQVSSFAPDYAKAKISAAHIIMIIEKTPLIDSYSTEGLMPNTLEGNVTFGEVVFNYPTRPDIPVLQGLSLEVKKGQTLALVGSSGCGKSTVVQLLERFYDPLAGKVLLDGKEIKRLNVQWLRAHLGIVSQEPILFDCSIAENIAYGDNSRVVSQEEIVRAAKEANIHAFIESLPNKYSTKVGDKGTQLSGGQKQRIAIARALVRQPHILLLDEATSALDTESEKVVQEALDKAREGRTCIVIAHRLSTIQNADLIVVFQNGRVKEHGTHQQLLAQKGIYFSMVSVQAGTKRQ
# Method: These experiments were performed by an outside vendor (Eurofins, France). C21 was tested in P-gp substrate assessment assays at 10 µM. The A to B and B to A permeability was measured in Caco-2 cells in the presence and absence of verapamil, a P-gp inhibitor. Efflux ratios (E) were calculated based on the apparent B–A and A–B permeability with and without verapamil. In each experiment, the respective reference compound was tested concurrently with the test compound to assess the assay reliability. Fluorescein was used as the cell monolayer integrity marker. Fluorescein permeability assessment (in the A–B direction at pH 7.4 on both sides) was performed after the permeability assay for the test compound.
# hM4Di [3] = biological target: T1, hM4Di; assay: Locomotor activity in D1-hM4Di mice
# Description: as §1, §2
# hM4Di [4] = biological target: T1, hM4Di; assay: [3H]clozapine competition binding, membranes of HEK-293 cells expressing hM4Di; conditions: read-out: hM4Di Ki; [3H]clozapine competition, HEK-293 membranes
# Method: (§3) Cells were routinely tested for myclopasma contamination (MycoAlert® Mycoplasma Detection Kit, Lonza). Cells were seeded on 60 cm^2 dishes at 4 × 10^6 cells/dish 24 h before transfection. The indicated amount of cDNA was transfected into HEK-293 cells using polyethylenimine (PEI; Sigma-Aldrich) in a 1–2 DNA:PEI ratio. Cell harvesting for radioligand binding experiments or signaling assays were performed approximately 48 h after transfection.
# (§4) Cells were suspended in Tris-HCl 50 mM pH 7.4 supplemented with protease inhibitor cocktail (1:100, Sigma-Aldrich, St. Louis, MO, USA). The dissected brain tissue was diluted in Tris-HCl 50 mM buffer supplemented with protease inhibitor cocktail (1:1000). HEK-293 cells or brain tissue were disrupted with a Polytron homogenizer (Kinematica, Basel, Switzerland). Homogenates were centrifuged at 48,000g (50 min, 4 °C) and washed twice in the same conditions to isolate the membrane fraction. Protein was quantified by the bicinchoninic acid method (Pierce). […] In all cases, free and membrane-bound radioligand were separated by rapid filtration of 500-μl aliquots in a 96-well plate harvester (Brandel, Gaithersburg, MD, USA) and washed with 2 ml of ice-cold Tris-HCl buffer. […] One-site competition curves were fitted using Prism 7 (GraphPad Software, La Jolla, CA, USA). Ki values were calculated using the Cheng–Prusoff equation.
# WT mice = assay: Locomotor activity in WT mice
# Description: as §1, §2
# hM3Dq [5] = biological target: T2, hM3Dq; assay: [3H]clozapine competition binding, membranes of HEK-293 cells expressing hM3Dq
# Method: as §3, §4
# hM3Dq [6] = biological target: T2, hM3Dq; assay: Locomotor activity in TH-hM3Dq rats; type: in vivo, rat; parameters: host or cells: TH-expressing neurons of the ventral tegmental area in TH:Cre rats (AAV transduction, in vivo); conditions: TH-hM3Dq rats, 1 or 5 mg/kg IP
# Method: Tyrosine hydroxylase (TH):Cre rats (n = 9; founder, K. Deisseroth lab) or WT littermates (n = 9) were bilaterally injected with AAV2 hSyn-DIO-hM3Dq-mCherry (1ul/hemisphere, Addgene), and allowed to recover for 2 + weeks. […] Vehicle was administered on 2 separate days, and average locomotion was used for comparison with DREADD agonists. Cohort 2 underwent the same procedures, but with a 4 h testing session, and the following IP injections: vehicle (x2), JHU37152 (0.01–0.3 mg kg^−1), JHU37160 (0.01–0.3 mg kg^−1). All drugs were dissolved in 5% DMSO in saline, and injected 1 ml kg^−1.
# striatal DREADDs = assay: [11C]clozapine PET DREADD occupancy in AAV-DREADD mice; conditions: 1 mg/kg IP
# Method: Animals were anesthetized with isoflurane or a mix of ketamine/xylazine and prepped on a stereotaxic apparatus (Kopf, Germany). […] When indicated, animals were pretreated with vehicle or the indicated drug 10 min before the injection of the PET radiotracer. Total acquisition time was 60 min.
# In all cases, the PET data were reconstructed and corrected for dead-time and radioactive decay. All qualitative and quantitative assessments of PET images were performed using the PMOD software environment (PMOD Technologies, Zurich Switzerland). Binding potential BPND (a relative measure of specific binding) was calculated using a reference tissue model using the cerebellum as a reference tissue in rodents. In macaques, the kinetic data were fitted to a two-tissue compartment model and the concentration of parent in plasma was used as an input function, then the volume of distribution ratios compared to cerebellum were calculated to establish BPND. In all cases, the dynamic PET images were coregistered to MRI templates and time-activity curves were generated using predefined volumes of interest (macaques) or manually drawn in rodents and the described analyses were performed. Receptor occupancy was calculated using the formula: occupancy = (BPND^0 − BPND^Drug)/BPND^0 × 100, where BPND^0 is the binding potential of the baseline condition and BPND^Drug the binding potential when the animals were pretreated with the drug.
compound,measurement,setting,value
c1ccc2c(c1)N=C(N1CCNCC1)c1ccccc1N2 [C21],"hM4Di activation, concentration-response points",hM4Di [1]; Log [compound] -4,96.8817
same,"hM4Di activation, concentration-response points",hM4Di [1]; Log [compound] -4.5,116.397
same,"hM4Di activation, concentration-response points",hM4Di [1]; Log [compound] -5,108.743 and 111.119 and 118.355
same,"hM4Di activation, concentration-response points",hM4Di [1]; Log [compound] -6,104.765 and 108.926 and 107.08
same,"hM4Di activation, concentration-response points",hM4Di [1]; Log [compound] -7,91.0167 and 106.137 and 98.8868
same,"hM4Di activation, concentration-response points",hM4Di [1]; Log [compound] -8,65.4069 and 99.8095 and 89.0469
same,"hM4Di activation, concentration-response points",hM4Di [1]; Log [compound] -9,48.391 and 67.2323 and 60.3348
same,"hM4Di activation, concentration-response points",hM4Di [1]; Log [compound] -10,22.6996 and 44.1322 and 29.3744
same,"hM4Di activation, concentration-response points",hM4Di [1]; Log [compound] -12,8.666
same,"hM4Di activation, concentration-response points",hM4Di [1]; Log [compound] -15,7.3972 and 3.296 and 3.683
same,"Gi/o activation, potency relative to clozapine",hM4Di [1]; cells or tissue expressing hM4Di,less potent than clozapine
same,behavior,"hM3Dq [2]; D1-hM3Dq mice, 10 mg/kg",seizure-like behavior
same,locomotor activity,"hM3Dq [2]; D1-hM3Dq mice, 0.1 and 1 mg/kg",robust decrease of locomotor activity
same,lowest dose activating hM3Dq,hM3Dq [2]; rodents (rats and mice),0.1 mg/kg
same,P-gp substrate,P-gp,none of these compounds is a substrate for P-gp
same,locomotor activity,"hM4Di [3]; D1-hM4Di mice, 1 mg/kg",small but significant decrease in locomotor activity
same,behavior,"hM4Di [3]; D1-hM4Di mice, 10 mg/kg",sedation
same,dose required to activate hM4Di,hM4Di [3]; rodents,at least 1 mg kg^-1
same,Ki,hM4Di [4],91 nM
same,locomotor activity / non-specific effects,"WT mice; WT mice, 10 mg/kg",produced non-specific effects
same,doses producing off-target effects,WT mice; mice without DREADDs,higher than 1 mg kg^-1
same,locomotor activity,"WT mice; mouse, in vivo",did not affect locomotor activity
same,less affinity than CLZ,hM3Dq [5]; DREADDs in HEK-293 cells,100 fold
same,Ki,"hM3Dq [5]; read-out: affinity (approximate, for equipotent concentrations), DREADD not specified",~200 nM
same,Ki,hM3Dq [5]; read-out: hM3Dq Ki,230 nM
same,locomotor activity,hM3Dq [6],significant increases in locomotor activity
same,in vivo DREADD occupancy ([11C]CLZ displacement),striatal DREADDs,~ 10%
